Assay results taken from patent US20190351076A1, “TUMOR CELL XENOGRAFT MODEL IN ZEBRAFISH, AND METHODS OF CONSTRUCTING AND USING THE SAME” (NANJING EMORY BIOTECHNOLOGY CO., LTD., priority 2017, published 2019).

Assays:
zebrafish embryos = zebrafish embryos two days after fertilization, treated for 3 days
Procedure: For the quantitative analysis, the antitumor effect is calculated according to the following formula: the tumor inhibition rate of the drug=(the fluorescence intensity of the treatment group/the fluorescence intensity of the control group)*100%.
1. Four groups, each group having four randomly selected zebrafish embryos that were two days old after fertilization, were placed in a solution of curcumin containing 0.1% DMSO. The curcumin concentrations were 10 μM, 30 μM, 50 μM, and 70 μM, respectively, and the treatment was continued for 3 days.

A549 = assay: Human lung cancer cell line xenograft model in zebrafish (A549); type: in vivo; settings: 50 μM and 5 μM soak for three days, day 7 after injection
lung cancer = assay: Clinical outcome of drug treatment in the lung cancer patients; type: in vivo, human
[1] = system: patient-derived primary lung cancer cells; assay: Patient-derived lung cancer cell xenograft model in zebrafish, fluorescence quantification; type: in vivo, human; settings: 50-μM and 5-μM soak for three days, day 7 after the injection
Procedure: (§1) The patient-derived clinical tissue biopsy that was a surgical specimen of lung cancer was placed in physiological saline. The blood clot, necrotic tissue, fat and connective tissues on the surface of the tumor tissue were removed under aseptic conditions. The tissue was cut by an ophthalmic scissor after sterilization, and washed 2 times with sterile phosphate buffer (pH 7.4). A small amount of phosphate buffer was added, and the tissue was repeatedly cut with an ophthalmic scissor until the tissue became a paste and was about 1 mm^3 in size. 0.25% trypsin was added and the tissue was digested at 37° C. for 10 minutes. […] The cells were resuspended in RPMI-1640 medium containing 10% FBS (fetal calf serum).
(§2) The primary cells obtained by dissociation were stained with CM-Dil, where the final dye concentration was 2 μg/ml, and the staining time was 1 hour. The dye was removed by centrifugation, and the cells were washed with a phosphate buffer and re-suspended to a cell density of 1×10^4/μl.
(§3) The stained cells were filled into a microinjector. […]
Within 4 days after the injection, the growth, metastasis and spread of the cells derived from the patient in the zebrafish were observed under a fluorescence microscopy and photographed. […]

SGC-7901 = assay: Human gastric cancer cell line xenograft model in zebrafish (SGC-7901); type: in vivo; settings: SGC-7901 xenograft; 4000 μM and 400 μM soak for three days; day 7 after injection
Procedure: (§4) 4000 μM and 400 μM5-FU were used to soak the zebrafish embryos injected with gastric cancer cell lines (SGC-7901 and AGS) (constructed as in Example 1) for three consecutive days, and 0.1% DMSO was used as a solvent control.
(§5) The red cells were photographed under a fluorescence microscope, and the red fluorescence intensity was quantified by Image Pro Plus software to calculate the anti-tumor effect of 5-FU by a formula: Tumor inhibition rate of the drug=(the fluorescence intensity of the treatment group/the fluorescence intensity of the control group)*100% (see FIG. 4).

AGS = assay: Human gastric cancer cell line xenograft model in zebrafish (AGS); type: in vivo; settings: 4000 μM and 400 μM soak for three days, day 7 after injection
Procedure: as §4, §5

[2] = system: patient-derived primary gastric cancer cells; assay: Patient-derived gastric cancer cell xenograft model in zebrafish, fluorescence quantification; type: in vivo, human; settings: 4000 μM and 400 μM soak for three days, day 7 after the injection
Procedure: as §1, with “gastric” for “lung”, “mm^3.” for “mm^3 in size.”, “re-suspended” for “resuspended”
as §2, §3
Within 7 days after the injection, the growth, metastasis and spread of the cells derived from the patient in the zebrafish were observed under a fluorescence microscopy and photographed. […]

gastric cancer = assay: Clinical outcome of 5-FU treatment in the gastric cancer patients; type: in vivo, human

Structure (SMILES): COc1cc(/C=C/C(=O)CC(=O)/C=C/c2ccc(O)c(OC)c2)ccc1O [curcumin]
- highest concentration within the safe range for embryos (zebrafish embryos): 50 µM

Structure (SMILES): COc1cc2ncnc(Nc3ccc(F)c(Cl)c3)c2cc1OCCCN1CCOCC1 [gefitinib]
- sensitivity of lung cancer cell line to gefitinib (A549): sensitive
- clinical effect of gefitinib in the treatment of the patients (lung cancer; *5 and *6 patients with lung cancer): significant
- clinical symptoms after treatment (lung cancer; *7 and *8 patients with lung cancer): not significantly improved
- sensitivity of patient-derived lung cancer cells to gefitinib (tumor inhibition effect) ([1]; *5 and *6 patients): sensitive
- sensitivity of patient-derived lung cancer cells to gefitinib ([1]; *7 and *8 patients): not sensitive
- highest concentration within the safe range for embryos (zebrafish embryos): 50 µM

Structure (SMILES): O=c1[nH]cc(F)c(=O)[nH]1 [5-FU, 5-fluorouracil]
- sensitivity of gastric cancer cell line to 5-FU (SGC-7901): sensitive
- sensitivity of gastric cancer cell line to 5-FU (AGS): sensitive
- sensitivity of patient-derived gastric cancer cells to 5-FU (tumor inhibition effect) ([2]; #1 and #2 patients): not sensitive
- sensitivity of patient-derived gastric cancer cells to 5-FU (tumor proliferation inhibition) ([2]; #3 and #4 patients): sensitive
- clinical effect of 5-FU in the treatment of the patients (gastric cancer; #1 and #2 patients with gastric cancer): not significant
- clinical symptoms after treatment with 5-FU (gastric cancer; #3 and #4 patients with gastric cancer): significantly improved

Structure (SMILES): CC(=O)O[C@@]12CO[C@@H]1C[C@H](O)[C@@]1(C)C(=O)[C@H](O)C3=C(C)[C@@H](OC(=O)[C@H](O)[C@@H](NC(=O)OC(C)(C)C)c4ccccc4)C[C@@](O)([C@@H](OC(=O)c4ccccc4)[C@H]21)C3(C)C [docetaxel]
- highest concentration within the safe range for embryos (zebrafish embryos): 10 µM
